Results published in patent US9266939B2, “Compositions comprising natriuretic peptides and methods of use thereof” (Alexion Pharmaceuticals, Inc., priority 2010, dated 2016).
Bridge positions count the residues as written; N and C are the ends. Ends that are not written are not given here. Peptide text beside a SMILES is read from it.

Experiments:
[1] = molecular target: T1, neutral endopeptidase (NEP) (Homo sapiens, UniProt P08473)
[2] = molecular target: T1, neutral endopeptidase (NEP); assay: in vitro; settings: isolated enzyme neprilysin, pH 7.5
NPR-B = molecular target: T2, NPR-B (Homo sapiens, UniProt P20594); assay: Whole cell guanylyl cyclase (cGMP) assay, NPR-B; assay type: cell-based; parameters: expressed in transfected cells; settings: for Emax: read-out: % Efficacy
T2 sequence (P20594 23-1047): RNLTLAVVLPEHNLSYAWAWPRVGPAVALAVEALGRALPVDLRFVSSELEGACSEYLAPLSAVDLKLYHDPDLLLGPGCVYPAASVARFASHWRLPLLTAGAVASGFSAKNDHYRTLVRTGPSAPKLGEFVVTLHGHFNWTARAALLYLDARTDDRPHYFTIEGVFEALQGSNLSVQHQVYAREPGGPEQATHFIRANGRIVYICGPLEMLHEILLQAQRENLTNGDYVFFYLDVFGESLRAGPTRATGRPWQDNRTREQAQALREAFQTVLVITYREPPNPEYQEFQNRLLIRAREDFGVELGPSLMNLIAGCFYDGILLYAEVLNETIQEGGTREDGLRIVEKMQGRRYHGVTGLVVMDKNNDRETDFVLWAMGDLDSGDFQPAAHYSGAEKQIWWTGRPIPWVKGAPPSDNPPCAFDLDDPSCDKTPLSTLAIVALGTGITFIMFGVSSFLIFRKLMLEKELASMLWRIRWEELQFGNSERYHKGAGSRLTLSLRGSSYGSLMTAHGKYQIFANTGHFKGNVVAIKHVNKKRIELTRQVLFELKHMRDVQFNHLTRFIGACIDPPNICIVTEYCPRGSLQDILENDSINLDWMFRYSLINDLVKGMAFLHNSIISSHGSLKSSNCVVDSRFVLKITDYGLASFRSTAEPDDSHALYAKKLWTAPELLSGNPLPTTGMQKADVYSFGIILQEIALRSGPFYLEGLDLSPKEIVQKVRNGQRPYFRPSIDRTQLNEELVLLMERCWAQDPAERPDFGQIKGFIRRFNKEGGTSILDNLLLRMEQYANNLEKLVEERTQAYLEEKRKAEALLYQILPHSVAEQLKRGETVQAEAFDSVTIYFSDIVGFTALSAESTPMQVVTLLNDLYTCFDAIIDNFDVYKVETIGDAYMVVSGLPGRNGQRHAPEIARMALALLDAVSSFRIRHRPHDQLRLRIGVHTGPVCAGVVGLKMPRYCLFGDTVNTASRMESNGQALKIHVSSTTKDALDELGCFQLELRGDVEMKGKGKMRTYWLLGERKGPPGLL
Method: HEK293S cells in a semi-confluent 75 cm2 flask are transfected with 30 μg of plasmid DNA coding for the appropriate receptor, e.g., human NPR-B or NPR-A, using Lipofectamine-2000CD. Alternatively, a stable polyclonal HEK293 S cell line expressing either human NPR-B or NPR-A was used. 24 hours after transfection, cells are trypsinized and plated into 48-well plates at 1×10^5 cells/well. Guanylyl cyclase assay is carried out 24 hours post-plating. Cells are first incubated for 30 minutes at 37° C. with serum-free DMEM medium. Then, they are incubated in triplicate with or without increasing concentrations of reference or test proteins in serum-free DMEM supplemented with 1 mM IBMX and 0.5% BSA, at 37° C. for 30 minutes to one hour. CNP serves as a suitable reference for NPR-B, while ANP is a suitable reference for NPR-A. Finally, cells are washed with ice-cold PBS and solubilized in lysis buffer from Catchpoint cGMP kit (Molecular devices). Concentrations of cGMP in lysate are determined using the Catchpoint cGMP kit. Dose-response curves are analysed with GraphPad Prism 5 software using non-linear regression with four-parameter logistic equation.

T1 sequence (P08473 whole entry): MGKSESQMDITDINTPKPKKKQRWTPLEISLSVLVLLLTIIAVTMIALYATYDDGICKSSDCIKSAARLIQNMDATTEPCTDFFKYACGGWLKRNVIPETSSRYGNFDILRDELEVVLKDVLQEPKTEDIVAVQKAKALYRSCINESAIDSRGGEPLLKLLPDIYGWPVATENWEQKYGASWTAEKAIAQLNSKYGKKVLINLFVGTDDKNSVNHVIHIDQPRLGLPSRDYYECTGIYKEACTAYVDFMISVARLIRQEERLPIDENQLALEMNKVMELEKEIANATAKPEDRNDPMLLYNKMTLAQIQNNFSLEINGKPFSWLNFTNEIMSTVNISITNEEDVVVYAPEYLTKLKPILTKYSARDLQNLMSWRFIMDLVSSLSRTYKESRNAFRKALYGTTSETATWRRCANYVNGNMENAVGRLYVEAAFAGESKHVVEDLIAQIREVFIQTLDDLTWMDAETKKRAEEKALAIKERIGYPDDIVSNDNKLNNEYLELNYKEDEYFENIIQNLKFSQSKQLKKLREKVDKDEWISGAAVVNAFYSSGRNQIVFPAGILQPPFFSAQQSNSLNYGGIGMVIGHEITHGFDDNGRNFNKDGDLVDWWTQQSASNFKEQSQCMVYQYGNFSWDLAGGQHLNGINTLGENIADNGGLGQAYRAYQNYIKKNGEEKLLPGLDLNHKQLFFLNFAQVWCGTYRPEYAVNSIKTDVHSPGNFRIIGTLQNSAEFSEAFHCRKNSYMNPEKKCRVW

Compound	Resist NEP degradation (No/Yes) [1]	remaining at 4 h [2] [%]	EC50 Ratio versus CNP22 (NPR-B)	Rescue Ratio Average (NPR-B)	Rescue Ratio versus CNP22 (NPR-B)	Rescue range (NPR-B) [nM]	potency compared with the other tested peptides (NPR-B)	EC50 (NPR-B) [µM]	Emax (NPR-B) [%]
EEEEEEHKLRGQEHPNARKYKGANKKGLSKGCFGLKLDRIGSMSGLGC (disulfide 32-48) [KB1(E6)]	Yes	107	5.75	5.6	5.6-5.6	13.4 to 78.1	more potent than the other tested peptides	0.0845	109
EEEEEEPSSAAPQPNAPSTSAGLSKGCFGLKLDRIGSMSGLGC (disulfide 27-43) [C3(E6) [BC3]]	Yes	100	67.4	199	117-281	280 to 3927	–	0.99	67
EEEEEESGGGGSGGGQGANQKGLSKGCFGLKLDRIGSMSGLGC (disulfide 27-43) [C10(E6) [BC10]]	Yes	102	168	90	89-90	213 to 1253	–	2.47	156
EEEEEEHGPQGQEHPNARKYKGANKKGLSKGCFGLKLDRIGSMSGLGC (disulfide 32-48) [KA1(E6)]	Yes	108	9.79	8.2	–	21.6 to 102	more potent than the other tested peptides	0.144	108
EEEEEESGGGGSGGGKGANKKGLSKGCFGLKLDRIGSMSGLGC (disulfide 27-43) [C4(E6) [BC4]]	Yes	94	20.5	18	–	46 to 219	–	0.302	136
EEEEEESGGGGSGGGQGANKKGLSKGCFGLKLDRIGSMSGLGC (disulfide 27-43) [C8(E6) [BC8]]	Yes	103	48.9	52	48-56	116 to 779	–	0.719	97
EEEEEESGGGGSGGGKGANQKGLSKGCFGLKLDRIGSMSGLGC (disulfide 27-43) [C7(E6) [BC7]]	Yes	98	68.6	80	74-85	177 to 1193	–	1.01	95
CC[C@H](C)[C@@H]1NC(=O)[C@H](CCCNC(=N)N)NC(=O)[C@H](CC(=O)O)NC(=O)[C@H](CC(C)C)NC(=O)[C@H](CCCCN)NC(=O)[C@H](CC(C)C)NC(=O)CNC(=O)[C@H](Cc2ccccc2)NC(=O)[C@@H](NC(=O)CNC(=O)[C@H](CCCCN)NC(=O)[C@H](CO)NC(=O)[C@H](CC(C)C)NC(=O)CN)CSSC[C@@H](C(=O)N2CCC[C@H]2C(=O)N[C@@H](CO)C(=O)N[C@@H](CO)C(=O)N[C@@H](C)C(=O)N[C@@H](C)C(=O)N[C@@H](CCCNC(=N)N)C(=O)N[C@@H](CCCNC(=N)N)C(=O)O)NC(=O)CNC(=O)[C@H](CC(C)C)NC(=O)CNC(=O)[C@H](CO)NC(=O)[C@H](CCSC)NC(=O)[C@H](CO)NC(=O)CNC1=O [CDNP29-S3A4A5R6 [C14]]	–	99	–	–	–	–	–	–	–
EEEEEEASTSPANPQPAASSPGLSKGCFGLKLDRIGSMSGLGC (disulfide 27-43) [C2(E6) [BC2]]	Yes	101	49.0	803	177-1429	424 to 20000	–	0.72	97
EEEEEESGGGGSGGGQGANKQGLSKGCFGLKLDRIGSMSGLGC (disulfide 27-43) [C11(E6) [BC11]]	Yes	102	60.4	120	–	289 to 1662	–	0.888	95
CC[C@H](C)[C@@H]1NC(=O)[C@H](CCCNC(=N)N)NC(=O)[C@H](CC(=O)O)NC(=O)[C@H](CC(C)C)NC(=O)[C@H](CCCCN)NC(=O)[C@H](CC(C)C)NC(=O)CNC(=O)[C@H](Cc2ccccc2)NC(=O)[C@@H](NC(=O)CNC(=O)[C@H](CCCCN)NC(=O)[C@H](CO)NC(=O)[C@H](CC(C)C)NC(=O)CNC(=O)CNC(=O)[C@H](CO)NC(=O)[C@H](CO)NC(=O)[C@H](C)NC(=O)[C@H](C)NC(=O)[C@@H]2CCCN2C(=O)[C@H](CCCNC(=N)N)NC(=O)[C@@H]2CCCN2C(=O)[C@H](CC(N)=O)NC(=O)[C@H](C)NC(=O)[C@@H]2CCCN2C(=O)[C@H](CO)NC(=O)[C@@H](NC(=O)[C@H](CO)NC(=O)[C@H](C)N)[C@@H](C)O)CSSC[C@@H](C(=O)O)NC(=O)CNC(=O)[C@H](CC(C)C)NC(=O)CNC(=O)[C@H](CO)NC(=O)[C@H](CCSC)NC(=O)[C@H](CO)NC(=O)CNC1=O [CNP-Nterm2 [C5]] (HELM PEPTIDE1{A.S.T.S.P.A.N.P.R.P.A.A.S.S.G.G.L.S.K.G.C.F.G.L.K.L.D.R.I.G.S.M.S.G.L.G.C}$PEPTIDE1,PEPTIDE1,21:R3-37:R3$$$V2.0)	–	106	–	–	–	–	–	–	–
CC[C@H](C)[C@@H]1NC(=O)[C@H](CCCNC(=N)N)NC(=O)[C@H](CC(=O)O)NC(=O)[C@H](CC(C)C)NC(=O)[C@H](CCCCN)NC(=O)[C@H](CC(C)C)NC(=O)CNC(=O)[C@H](Cc2ccccc2)NC(=O)[C@@H](NC(=O)CNC(=O)[C@H](CCCCN)NC(=O)[C@H](CO)NC(=O)[C@H](CC(C)C)NC(=O)CN)CSSC[C@@H](C(=O)N2CCC[C@H]2C(=O)N[C@@H](CO)C(=O)N[C@@H](CO)C(=O)N[C@@H](C)C(=O)N[C@@H](C)C(=O)N[C@@H](CCCNC(=N)N)C(=O)N[C@@H](CCCNC(=N)N)C(=O)N2CCC[C@H]2C(=O)N[C@@H](CC(N)=O)C(=O)N[C@@H](C)C(=O)N2CCC[C@H]2C(=O)N[C@@H](CO)C(=O)N[C@H](C(=O)N[C@@H](CO)C(=O)N[C@@H](C)C(=O)O)[C@@H](C)O)NC(=O)CNC(=O)[C@H](CC(C)C)NC(=O)CNC(=O)[C@H](CO)NC(=O)[C@H](CCSC)NC(=O)[C@H](CO)NC(=O)CNC1=O [CDNP-S3A4A5R6 [C13]] (HELM PEPTIDE1{G.L.S.K.G.C.F.G.L.K.L.D.R.I.G.S.M.S.G.L.G.C.P.S.S.A.A.R.R.P.N.A.P.S.T.S.A}$PEPTIDE1,PEPTIDE1,6:R3-22:R3$$$V2.0)	–	100	–	–	–	–	–	–	–
